Assay results as given in patent publication US11397182B2, “Methods for prognosing and preventing metastatic liver disease” (CORNELL UNIVERSITY, priority 2014, dated 2022).

Tests used:
[1] = biological target: T1, TGF-beta type I receptor (Mus musculus, UniProt Q64729); experiment: Systemic TGFβ receptor inhibition during PAN02 exosome education, liver immunofluorescence; format: in vivo; conditions: A83-01 i.p. during the three-week course of PAN02 exosome education
T1 construct: from tissue; host or cells: living C57Bl/6 mice; liver analysed by immunofluorescence
T1 sequence (Q64729 30-503): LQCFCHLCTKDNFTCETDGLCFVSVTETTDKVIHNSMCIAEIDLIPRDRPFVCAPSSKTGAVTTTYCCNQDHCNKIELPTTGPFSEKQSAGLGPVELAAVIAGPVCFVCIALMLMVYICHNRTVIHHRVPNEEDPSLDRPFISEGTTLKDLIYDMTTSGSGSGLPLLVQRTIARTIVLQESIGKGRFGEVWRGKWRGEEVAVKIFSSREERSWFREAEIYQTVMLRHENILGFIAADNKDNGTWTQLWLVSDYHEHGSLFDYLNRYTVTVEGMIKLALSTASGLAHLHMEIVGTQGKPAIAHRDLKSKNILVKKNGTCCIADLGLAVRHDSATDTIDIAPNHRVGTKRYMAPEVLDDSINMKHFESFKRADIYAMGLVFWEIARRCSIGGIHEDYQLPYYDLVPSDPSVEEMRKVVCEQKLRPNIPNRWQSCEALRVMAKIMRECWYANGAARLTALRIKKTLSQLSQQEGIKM
Method: Five micrograms of total exosomal protein was injected into the retro-orbital venous sinus in a total volume of 100 μl PBS. For education experiments, mice received 5 μg of exosomes every other day, 3 times a week. For exosome-tracking experiments, purified exosomes were fluorescently labelled using PKH67 membrane dye (Sigma). Labelled exosomes were washed in 20 ml of PBS, collected by ultracentrifugation, and resuspended in PBS. In experiments involving evaluation of exosome incorporation, labelled exosomes were injected 24 h before tissue collection and analysis for exosome^+ cells was conducted by flow cytometry or immunofluorescence. For exosome-tracking experiments, 5 μg of non-tumour exosomes from normal pancreas were used as controls. Unlabeled exosomes were used as controls of signal specificity. For education experiments, retro-orbital injection of PBS or normal pancreata exosomes was used in control groups.
For systemic TGFβ receptor inhibition, mice were treated with intraperitoneal injections of A83-01 (Santa Cruz). Mice were administered 10 μg of A83-01 (diluted in 100 μl of dimethylsulphoxide) per gram of mouse weight for a total of 9 doses, every other day, for the three weeks of PAN02 exosome education.
For histological analysis, tissues were dissected and fixed in a mix of 2% PFA and 20% sucrose solution overnight, and then embedded in Tissue-tek O.C.T. (Electron Microscopy Sciences). Blocks were frozen in a dry ice and ethanol bath. […] GFP and mCherry′ cells were detected by their intrinsic signal. Fluorescent images were obtained using a Nikon confocal microscope (Eclipse TE2000U) and analyzed using Nikon software (EZ-C1 3.6). FN and αSMA expression were quantified using ImageJ Software (NIH) by determining the ratio between the areas of FN and DAPI staining, expressed in arbitrary units (a.u.).

[2] = test system: fibronectin; experiment: Tamoxifen-driven conditional FN knockout during PAN02 exosome education, liver immunofluorescence; format: in vivo, mouse; conditions: tamoxifen treatment of Rosa-CreER+; Fn fl/fl mice during PAN02 exosome education
Text: To generate inducible FN knockout mice, we crossed B6; 129-Gt(ROSA)26SOR^tm1(cre/ERT2)Tyj/J mice expressing tamoxifen-sensitive Cre under the Gt(Rosa)26 or promoter (Jackson Laboratories, stock 008463) with mice homozygous for a floxed allele of fibronectin (Fn^fl/fl, generously provided by R. Fässler, Max Planck Institute of Biochemistry) (Sakai et al., “Plasma Fibronectin Supports Neuronal Survival and Reduces Brain Injury Following Transient Focal Cerebral Ischemia but is Not Essential for Skin-Wound Healing and Hemostasis,” Nat. Med. 7:324-330 (2001), which is hereby incorporated by reference in its entirety). […] For verification of Fn deletion, liver FN expression was evaluated by immunofluorescence.
For histological analysis, tissues were dissected and fixed in a mix of 2% PFA and 20% sucrose solution overnight, and then embedded in Tissue-tek O.C.T. (Electron Microscopy Sciences). […] GFP and mCherry′ cells were detected by their intrinsic signal. Fluorescent images were obtained using a Nikon confocal microscope (Eclipse TE2000U) and analyzed using Nikon software (EZ-C1 3.6). FN and αSMA expression were quantified using ImageJ Software (NIH) by determining the ratio between the areas of FN and DAPI staining, expressed in arbitrary units (a.u.).

Cc1cccc(-c2nn(C(=S)Nc3ccccc3)cc2-c2ccnc3ccccc23)n1 [A83-01, 3-(6-Methyl-2-pyridinyl)-N-phenyl-4-(4-quinolinyl)-1H-pyrazole-1-carbothioamide]
F4/80+ macrophage migration to the liver [1]: reduced
FN deposition in the liver [1]: reduced
frequency of αSMA+ hStCs in the liver [1]: reduced

CC/C(=C(\c1ccccc1)c1ccc(OCCN(C)C)cc1)c1ccccc1 [tamoxifen]
FN deposition in the liver [2]: reduced to control
αSMA expression in the liver [2]: not affected
